Data from patent EP0678516B1, “Preparation of 2-bromo-5-(2-bromo-2-nitrovinyl)-furan and its use as microcide” (CENTRO DE BIOACTIVOS QUIMICOS DE LA UNIVERSIDAD CENTRAL DE …, priority 1994, dated 1995).
Values after ≈ are worked out from the molar mass of the structure shown.

Legend:
[1] = Ophthalmic irritability studies; format: in vivo
Source text: Moreover, the anatomopathological elements and the clinical events were characterized during the experiments.

Salmonella dublin = experiment: In vitro MIC (serial dilution); format: cell-based; conditions: Salmonella enterica
Description: (§1) The antimicrobial sensitivity was first evaluated "in vitro" using the serial dilution method for bacteria and fungi. Other growth methods in agar cultures were included for other species. The liquid and solid mediums used were Mueller-Hinton, Tryptona Soya, Sabouraud Dextrosa, Sabouraud Maltose and other mediums in accordance with the cultural demands of the micro-organisms valued.
(§2) The temperature and incubation period was adjusted to conditions and characteristics of the micro-organisms used.
(§3) The Minimal Inhibitory Concentration (MIC) was calculated in terms of MIC50 and MIC90 in µg/ml.

Salmonella typhimurium = experiment: In vitro MIC (serial dilution); format: cell-based; conditions: Salmonella enterica
Description: as §1, §2, §3

Pseudomonas maltophila = experiment: In vitro MIC (serial dilution); format: cell-based
Description: as §1, §2, §3

Microsporum gypseum = experiment: In vitro MIC (serial dilution); format: cell-based; conditions: Nannizzia gypsea
Description: as §1, §2, §3

Escherichia coli = experiment: In vitro MIC (serial dilution); format: cell-based
Description: as §1, §2, §3

Corynebacterium pyogenes = experiment: In vitro MIC (serial dilution); format: cell-based; conditions: Rhodococcus (subgen. Prescottella) equi
Description: as §1, §2, §3

Bacillus subtilis = experiment: In vitro MIC (serial dilution); format: cell-based
Description: as §1, §2, §3

Proteus mirabilis = experiment: In vitro MIC (serial dilution); format: cell-based
Description: as §1, §2, §3

Pasteurella multocida = experiment: In vitro MIC (serial dilution); format: cell-based
Description: as §1, §2, §3

Serratia marcescens = experiment: In vitro MIC (serial dilution); format: cell-based
Description: as §1, §2, §3

[2] = system: Vibrio cholerae ser. Inabu; experiment: In vitro MIC (serial dilution); format: cell-based
Description: as §1, §2, §3

Sarcina lutea = experiment: In vitro MIC (serial dilution); format: cell-based; conditions: Micrococcus luteus
Description: as §1, §2, §3

Candida stellatoidea = experiment: In vitro MIC (serial dilution); format: cell-based; conditions: Candida albicans
Description: as §1, §2, §3

Candida tropicalis = experiment: In vitro MIC (serial dilution); format: cell-based
Description: as §1, §2, §3

Pseudomonas aerguinosa = experiment: In vitro MIC (serial dilution); format: cell-based
Description: as §1, §2, §3

Candida albicans = experiment: In vitro MIC (serial dilution); format: cell-based
Description: as §1, §2, §3

Leptospira canicola = experiment: In vitro MIC (serial dilution); format: cell-based; conditions: Leptospira interrogans
Description: as §1, §2, §3

Bacillus alvei = experiment: In vitro MIC (serial dilution); format: cell-based; conditions: Paenibacillus alvei
Description: as §1, §2, §3

Proteus morganii = experiment: In vitro MIC (serial dilution); format: cell-based; conditions: Morganella morganii
Description: as §1, §2, §3

[3] = system: Klebsiella spp. (including K. pneumoniae); experiment: In vitro MIC (serial dilution); format: cell-based
Description: as §1, §2, §3

Aspergillus sp. = experiment: In vitro MIC (serial dilution); format: cell-based
Description: as §1, §2, §3

Moracella bovis = experiment: In vitro MIC (serial dilution); format: cell-based
Description: as §1, §2, §3

Salmonella choleraesuis = experiment: In vitro MIC (serial dilution); format: cell-based; conditions: Salmonella enterica
Description: as §1, §2, §3

[4] = system: Trichophyton mentagrophytes; experiment: In vitro MIC (serial dilution); format: cell-based
Description: as §1, §2, §3

Salmonella oxford = experiment: In vitro MIC (serial dilution); format: cell-based
Description: as §1, §2, §3

Streptococcus pyogenes = experiment: In vitro MIC (serial dilution); format: cell-based
Description: as §1, §2, §3

Candida parasilosis = experiment: In vitro MIC (serial dilution); format: cell-based
Description: as §1, §2, §3

Trichophyton rubrum = experiment: In vitro MIC (serial dilution); format: cell-based
Description: as §1, §2, §3

Proteus rettgeri = experiment: In vitro MIC (serial dilution); format: cell-based; conditions: Providencia rettgeri
Description: as §1, §2, §3

Candida pseudotropicalis = experiment: In vitro MIC (serial dilution); format: cell-based; conditions: Kluyveromyces marxianus
Description: as §1, §2, §3

Leptospira pomona = experiment: In vitro MIC (serial dilution); format: cell-based
Description: as §1, §2, §3

Listeria monocytogenes = experiment: In vitro MIC (serial dilution); format: cell-based
Description: as §1, §2, §3

Pseudomonas aeruginosa = experiment: Experimental infection, implanted sponge method; format: in vivo, mice
Description: The effectiveness of three oil formulations were also tested, at 0.15, 0.2, 0.25% and a control with placebo in mice experimentally infected using implanted sponge method, inoculated with Pseudomonas aeruginosa and Staphylococcus aureus. Recuperation of the animal was between 3 and 4 days of treatment (Tables No. 3 and 3.1).
Read: n = Accumulated from recuperated animals Tr = Recuperation time in days (weighted average) ((n1±1) + ((n2-n1) ±2)+((n3-n2)±3((n4-n3)±4)/n [formula] I,II, III: treated with 2-bromo-5-(2-bromo-2-nitro-vinyl)-furan.

## O=[N+]([O-])C(Br)=Cc1ccc(Br)o1 [Product G-1, 2-bromo-5-(2-bromo-2-nitro-vinyl)-furan]
[1]
  concentrations at which no irritating effects were made on the eye structure: lower than 1.25%
Salmonella dublin
  MIC50: 4.38 µg/mL (≈ 14.8 µM)
  MIC90: 5.73 µg/mL (≈ 19.3 µM)
Salmonella typhimurium; TYPHIMURIUM, read-out: MIC90 values
  MIC90: 17.7 µg/mL (≈ 59.5 µM)
Salmonella typhimurium; Salmonella typhimurium
  MIC50: 7.43 µg/mL (≈ 25 µM)
Pseudomonas maltophila
  MIC50: 29.7 µg/mL (≈ 100 µM)
  MIC90: 45.1 µg/mL (≈ 152 µM)
Microsporum gypseum
  MIC50: 12.5 µg/mL (≈ 42.1 µM)
  MIC90: 20.8 µg/mL (≈ 70 µM)
Escherichia coli
  MIC50: 7.53 µg/mL (≈ 25.4 µM)
  MIC90: 16 µg/mL (≈ 53.8 µM)
Corynebacterium pyogenes
  MIC50: 3.56 µg/mL (≈ 12 µM)
  MIC90: 5.59 µg/mL (≈ 18.8 µM)
Bacillus subtilis
  MIC50: 2.27 µg/mL (≈ 7.65 µM)
  MIC90: 5.08 µg/mL (≈ 17.1 µM)
Proteus mirabilis
  MIC50: 9.36 µg/mL (≈ 31.5 µM)
  MIC90: 24.1 µg/mL (≈ 81.3 µM)
Pasteurella multocida
  MIC50: 3.59 µg/mL (≈ 12.1 µM)
  MIC90: 9.47 µg/mL (≈ 31.9 µM)
Serratia marcescens
  MIC50: 5.03 µg/mL (≈ 16.9 µM)
  MIC90: 10.9 µg/mL (≈ 36.9 µM)
[2]; read-out: MIC50 values
  MIC50: 5.87 µg/mL (≈ 19.8 µM)
[2]; read-out: MIC90 values
  MIC90: 17.7 µg/mL (≈ 59.5 µM)
Sarcina lutea
  MIC50: 1.56 µg/mL (≈ 5.25 µM)
  MIC90: 4.43 µg/mL (≈ 14.9 µM)
Candida stellatoidea
  MIC50: 1.92 µg/mL (≈ 6.47 µM)
  MIC90: 3.56 µg/mL (≈ 12 µM)
Candida tropicalis
  MIC50: 2.78 µg/mL (≈ 9.36 µM)
  MIC90: 5.29 µg/mL (≈ 17.8 µM)
Pseudomonas aerguinosa
  MIC50: 7.84 µg/mL (≈ 26.4 µM)
  MIC90: 15 µg/mL (≈ 50.4 µM)
Candida albicans
  MIC50: 3.11 µg/mL (≈ 10.5 µM)
  MIC90: 7.95 µg/mL (≈ 26.8 µM)
Leptospira canicola
  MIC50: 9.36 µg/mL (≈ 31.5 µM)
  MIC90: 15.4 µg/mL (≈ 51.8 µM)
Bacillus alvei
  MIC50: 2.21 µg/mL (≈ 7.44 µM)
  MIC90: 5.08 µg/mL (≈ 17.1 µM)
Proteus morganii
  MIC50: 3.13 µg/mL (≈ 10.5 µM)
  MIC90: 10.2 µg/mL (≈ 34.2 µM)
[3]
  MIC50: 11 µg/mL (≈ 37 µM)
  MIC90: 21.3 µg/mL (≈ 71.9 µM)
Aspergillus sp.
  MIC50: 16.2 µg/mL (≈ 54.6 µM)
  MIC90: 48.3 µg/mL (≈ 163 µM)
Moracella bovis
  MIC50: 2.63 µg/mL (≈ 8.86 µM)
  MIC90: 5.08 µg/mL (≈ 17.1 µM)
Salmonella choleraesuis
  MIC50: 5.57 µg/mL (≈ 18.8 µM)
  MIC90: 10.5 µg/mL (≈ 35.4 µM)
[4]
  MIC90: 40.6 µg/mL (≈ 137 µM)
[4]; read-out: MIC50 values
  MIC50: 17.7 µg/mL (≈ 59.5 µM)
Salmonella oxford
  MIC50: 4.42 µg/mL (≈ 14.9 µM)
  MIC90: 5.83 µg/mL (≈ 19.6 µM)
Streptococcus pyogenes
  MIC50: 1.86 µg/mL (≈ 6.26 µM)
  MIC90: 4.42 µg/mL (≈ 14.9 µM)
Candida parasilosis
  MIC50: 3.56 µg/mL (≈ 12 µM)
  MIC90: 6.93 µg/mL (≈ 23.3 µM)
Trichophyton rubrum
  MIC50: 13.8 µg/mL (≈ 46.5 µM)
  MIC90: 24 µg/mL (≈ 80.9 µM)
Proteus rettgeri
  MIC50: 2.78 µg/mL (≈ 9.36 µM)
  MIC90: 9.92 µg/mL (≈ 33.4 µM)
Candida pseudotropicalis
  MIC50: 1.92 µg/mL (≈ 6.47 µM)
  MIC90: 3.56 µg/mL (≈ 12 µM)
Leptospira pomona
  MIC50: 8.84 µg/mL (≈ 29.8 µM)
  MIC90: 11.7 µg/mL (≈ 39.3 µM)
Listeria monocytogenes
  MIC50: 3.13 µg/mL (≈ 10.5 µM)
  MIC90: 5.44 µg/mL (≈ 18.3 µM)
Pseudomonas aeruginosa; Formula 0.15%, day 3, 10 mice
  Accumulated clinical recuperation: 80.0a %
  Accumulated clinical recuperation, n (recuperated animals): 8
Pseudomonas aeruginosa; Formula 0.15%, day 5, 10 mice
  Accumulated clinical recuperation: 100.0a %
  Accumulated clinical recuperation, n (recuperated animals): 10
Pseudomonas aeruginosa; Formula 0.15%, day 7, 10 mice
  Accumulated clinical recuperation: 100.0%
  Accumulated clinical recuperation, n (recuperated animals): 10
Pseudomonas aeruginosa; Formula 0.2%, day 3, 10 mice
  Accumulated clinical recuperation: 80.0a %
  Accumulated clinical recuperation, n (recuperated animals): 8
Pseudomonas aeruginosa; Formula 0.2%, day 5, 10 mice
  Accumulated clinical recuperation: 100.0a %
  Accumulated clinical recuperation, n (recuperated animals): 10
Pseudomonas aeruginosa; Formula 0.2%, day 7, 10 mice
  Accumulated clinical recuperation: 100.0%
  Accumulated clinical recuperation, n (recuperated animals): 10
Pseudomonas aeruginosa; Formula 0.25%, day 3, 10 mice
  Accumulated clinical recuperation: 50.0a %
  Accumulated clinical recuperation, n (recuperated animals): 5
Pseudomonas aeruginosa; Formula 0.25%, day 5, 10 mice
  Accumulated clinical recuperation: 90.0a %
  Accumulated clinical recuperation, n (recuperated animals): 9
Pseudomonas aeruginosa; Formula 0.25%, day 7, 10 mice
  Accumulated clinical recuperation: 100.0%
  Accumulated clinical recuperation, n (recuperated animals): 10
